From ChEMBL document CHEMBL6177932 (J Med Chem, 2024)
One block for each compound: values may come before it. Active and inactive are the calls of the source. The rule behind the calls is not given here.

Experiments:
[1] = system: 4T1; settings: Mus musculus, time 24.0 hrs
[2] = target: T1, Vitamin D3 receptor (Mus musculus) (UniProt P48281); assay: Agonist activity at VDR in mouse 4T1 cells assessed as induction of Cyp24a1 gene at 0.1 to 10 uM measured after 24 hrs by RT-qPCR analysis; assay type: cell-based; settings: filed as agonist, dose 0.1-10 µM
T1 sequence (whole entry): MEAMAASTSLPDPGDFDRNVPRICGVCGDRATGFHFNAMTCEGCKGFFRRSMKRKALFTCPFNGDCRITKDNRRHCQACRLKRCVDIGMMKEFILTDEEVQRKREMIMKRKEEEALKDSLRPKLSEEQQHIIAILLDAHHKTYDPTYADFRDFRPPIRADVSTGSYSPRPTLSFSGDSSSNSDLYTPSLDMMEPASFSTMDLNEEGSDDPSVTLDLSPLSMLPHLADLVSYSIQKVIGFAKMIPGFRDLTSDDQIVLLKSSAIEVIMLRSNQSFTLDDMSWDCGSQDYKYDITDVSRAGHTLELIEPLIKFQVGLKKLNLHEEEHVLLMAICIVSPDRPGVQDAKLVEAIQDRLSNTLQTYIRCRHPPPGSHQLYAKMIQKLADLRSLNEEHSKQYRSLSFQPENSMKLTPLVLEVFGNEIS

[3] = system: 4TO7; assay: Inhibition of class 1 HDAC in mouse 4TO7 cells assessed as induction of H3K27 acetylation at 10 uM measured after 6 hrs by Western blot analysis; assay type: cell-based
[4] = system: 4TO7; assay: Inhibition of class 1 HDAC in mouse 4TO7 cells assessed as induction of H3K9 acetylation at 10 uM measured after 6 hrs by Western blot analysis; assay type: cell-based
[5] = target: T2, Protein deacetylase HDAC6 (Mus musculus) (UniProt Q9Z2V5); assay: Inhibition of HDAC6 in mouse 4TO7 cells assessed as induction of tubulin acetylation at 10 uM measured after 6 hrs by Western blot analysis; assay type: cell-based
T2 sequence (whole entry): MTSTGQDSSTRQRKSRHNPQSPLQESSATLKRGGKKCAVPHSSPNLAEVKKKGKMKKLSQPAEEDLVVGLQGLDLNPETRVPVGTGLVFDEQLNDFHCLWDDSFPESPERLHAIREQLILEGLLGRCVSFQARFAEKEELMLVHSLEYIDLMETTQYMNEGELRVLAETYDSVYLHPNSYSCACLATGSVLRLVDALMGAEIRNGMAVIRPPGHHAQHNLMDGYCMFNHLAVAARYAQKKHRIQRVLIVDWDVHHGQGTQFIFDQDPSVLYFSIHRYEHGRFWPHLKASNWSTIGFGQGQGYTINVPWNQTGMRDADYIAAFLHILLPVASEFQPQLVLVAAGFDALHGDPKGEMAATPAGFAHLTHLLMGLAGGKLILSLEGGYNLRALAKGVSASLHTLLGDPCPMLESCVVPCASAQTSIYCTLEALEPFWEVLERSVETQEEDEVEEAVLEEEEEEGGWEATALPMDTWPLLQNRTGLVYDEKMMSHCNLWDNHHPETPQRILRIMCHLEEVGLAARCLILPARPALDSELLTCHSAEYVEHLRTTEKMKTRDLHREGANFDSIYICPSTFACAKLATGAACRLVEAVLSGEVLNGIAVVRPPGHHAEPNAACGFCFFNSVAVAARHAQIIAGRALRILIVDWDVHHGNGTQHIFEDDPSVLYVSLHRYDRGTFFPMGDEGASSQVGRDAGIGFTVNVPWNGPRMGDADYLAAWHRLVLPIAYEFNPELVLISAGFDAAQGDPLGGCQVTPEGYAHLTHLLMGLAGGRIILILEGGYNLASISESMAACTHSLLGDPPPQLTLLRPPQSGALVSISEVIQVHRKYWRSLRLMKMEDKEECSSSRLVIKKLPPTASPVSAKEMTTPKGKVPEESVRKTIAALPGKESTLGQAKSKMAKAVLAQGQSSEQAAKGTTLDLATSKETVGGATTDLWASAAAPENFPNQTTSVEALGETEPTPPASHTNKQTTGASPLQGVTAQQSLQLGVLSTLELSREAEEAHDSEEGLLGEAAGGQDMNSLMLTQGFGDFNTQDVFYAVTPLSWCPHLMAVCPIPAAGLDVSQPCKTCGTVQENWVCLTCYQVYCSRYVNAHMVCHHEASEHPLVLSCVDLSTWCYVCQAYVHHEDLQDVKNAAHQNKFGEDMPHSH

[6] = target: T1, Vitamin D3 receptor (Mus musculus); assay: Agonist activity at VDR in mouse 4TO7 cells assessed as induction of Cyp24a1 gene at 0.1 to 10 uM measured after 24 hrs by RT-qPCR analysis; assay type: cell-based; settings: filed as agonist, dose 0.1-10 µM
[7] = target: T2, Protein deacetylase HDAC6 (Mus musculus); assay: Inhibition of HDAC6 in mouse B16-F10 cells assessed as induction of tubulin acetylation at 10 uM measured after 6 hrs by Western blot analysis; assay type: cell-based
[8] = system: B16-F10; assay: Inhibition of class 1 HDAC in mouse B16-F10 cells assessed as induction of H3K27 acetylation at 10 uM measured after 6 hrs by Western blot analysis; assay type: cell-based
[9] = system: B16-F10; assay: Inhibition of class 1 HDAC in mouse B16-F10 cells assessed as induction of H3K9 acetylation at 10 uM measured after 6 hrs by Western blot analysis; assay type: cell-based
[10] = system: 4T1; assay: Inhibition of class 1 HDAC in mouse 4T1 cells assessed as induction of H3K27 acetylation at 10 uM measured after 6 hrs by Western blot analysis; assay type: cell-based
[11] = system: B16-F10; assay: Cytotoxicity against mouse B16-F10 cells assessed as reduction in cell viability at 0.01 to 100 uM measured after 24 hrs by RealTime-glo cell viability assay; assay type: functional, cell-based; settings: dose 0.01-100 µM
[12] = system: Mus musculus; assay: Immunomodulatory activity in mouse 4T1 cells implanted BALB/c mouse assessed as reduction in Ccl20 gene expression at 0.2 mg/kg, ip administered daily for 18 days by RT-qPCR analysis; assay type: functional, organism-based; settings: time 18.0 day
[13] = Toxicity in mouse B16-F10 cells implanted C57BL/6 mouse at 0.2 mg/kg, ip administered daily for 28 days; assay type: organism-based; settings: in vivo, time 28 day
[14] = Toxicity in mouse B16-F10 cells implanted C57BL/6 mouse assessed as effect on body weight at 0.2 mg/kg, ip administered daily for 28 days; assay type: organism-based; settings: in vivo, time 28 day
[15] = system: 4T1; assay: Inhibition of class 1 HDAC in mouse 4T1 cells assessed as induction of H3K9 acetylation at 10 uM measured after 6 hrs by Western blot analysis; assay type: cell-based
[16] = target: T2, Protein deacetylase HDAC6 (Mus musculus); assay: Inhibition of HDAC6 in mouse 4T1 cells assessed as induction of tubulin acetylation at 10 uM measured after 6 hrs by Western blot analysis; assay type: cell-based
[17] = system: B16-F10; assay: Antitumor activity against mouse B16-F10 cells implanted in C57BL/6 mouse assessed as reduction in tumor burden at 0.2 mg/kg, ip administered every second day for 18 days; assay type: functional, organism-based; settings: time 18.0 day
[18] = system: Mus musculus; assay: Immunomodulatory activity in mouse 4T1 cells implanted BALB/c mouse assessed as reduction in Ccl2 gene expression at 0.2 mg/kg, ip administered daily for 18 days by RT-qPCR analysis; assay type: functional, organism-based; settings: time 18.0 day
[19] = Toxicity in 4T1 cells implanted BALB/c mouse assessed as stress at 0.2 mg/kg, ip administered daily for 18 days; assay type: organism-based; settings: in vivo, 432 h, time 18 day
[20] = system: Mus musculus; assay: Immunomodulatory activity in mouse 4T1 cells implanted BALB/c mouse assessed as reduction in Ccl5 gene expression at 0.2 mg/kg, ip administered daily for 18 days by RT-qPCR analysis; assay type: functional, organism-based; settings: time 18.0 day
[21] = Toxicity in 4T1 cells implanted BALB/c mouse assessed as body weight loss at 0.2 mg/kg, ip administered daily for 18 days; assay type: organism-based; settings: in vivo, 432 h, time 18 day
[22] = system: Mus musculus; assay: Immunomodulatory activity in mouse 4T1 cells implanted BALB/c mouse assessed as induction of Il1a gene expression at 0.2 mg/kg, ip administered daily for 18 days by RT-qPCR analysis; assay type: functional, organism-based; settings: time 18.0 day
[23] = system: Mus musculus; assay: Immunomodulatory activity in mouse 4T1 cells implanted BALB/c mouse assessed as reduction in Cxcl10 gene expression at 0.2 mg/kg, ip administered daily for 18 days by RT-qPCR analysis; assay type: functional, organism-based; settings: time 18.0 day
[24] = system: 4T1; assay: Antitumor activity against mouse 4T1 cells implanted in BALB/c mouse assessed as reduction in tumor burden at 0.2 mg/kg, ip administered daily for 18 days; assay type: functional, organism-based; settings: time 18.0 day
[25] = Toxicity in mouse B16-F10 cells implanted C57BL/6 mouse assessed as effect on body weight at 50 mg/kg, ip administered daily for 28 days; assay type: organism-based; settings: in vivo, time 28 day
[26] = system: B16-F10; assay: Antitumor activity against mouse B16-F10 cells implanted in C57BL/6 mouse assessed as reduction in tumor burden at 50 mg/kg, ip administered every second day for 18 days; assay type: functional, organism-based; settings: time 18.0 day
[27] = Toxicity in mouse B16-F10 cells implanted C57BL/6 mouse at 50 mg/kg, ip administered daily for 28 days; assay type: organism-based; settings: in vivo, time 28 day

Structure (SMILES): CCC(CC)(c1ccc(C(=O)NCCCC(=O)NO)cc1)c1ccc(OCC(O)C(C)(C)C)c(C)n1 (configuration not stated)
- Activity [1]: Active
- Activity [2]: Active; Did Not Appear To Be A Full Agonist
- inhibition [3]: Active
- inhibition [4]: Active
- inhibition [5]: Active
- Activity [6]: Active

Structure (SMILES): CCC(CC)(c1ccc(C(=O)NCCCCCC(=O)NO)cc1)c1ccc(OCC(O)C(C)(C)C)c(C)c1 (configuration not stated)
- Activity [2]: Active
- inhibition [7]: Active; High Levels Of Acetylation Observed
- Activity [6]: Active
- inhibition [8]: Active; High Levels Of Acetylation Observed
- inhibition [9]: Active; High Levels Of Acetylation Observed

Structure (SMILES): Nc1ccn([C@@H]2O[C@H](CO)[C@@H](O)C2(F)F)c(=O)n1 [GEMCITABINE]
- Activity [25]: Non-toxic
- Activity [26]: Active
- Activity [27]: Non-toxic

Now from value to compound, other results behind:

- inhibition [5]: Active
- Activity [6]: Active
Structure (SMILES): CCC(CC)(c1ccc(C(=O)NCCCCCC(=O)NO)cc1)c1ccc(OCC(O)C(C)(C)C)c(C)n1 (configuration not stated)
- Activity [1]: Active
- Activity [2]: Active; Did Not Appear To Be A Full Agonist
- inhibition [3]: Active
- inhibition [4]: Active

- Activity [2]: Active
- inhibition [16]: Active
- Activity [6]: Active
Structure (SMILES): CCC(CC)(c1ccc(OCCCCCC(=O)NO)cc1)c1ccc(OCC(O)C(C)(C)C)c(C)n1 (configuration not stated)
- inhibition [10]: Active
- Activity [11]: Active
- Activity [12]: Active
- Activity [13]: Non-toxic
- Activity [14]: Non-toxic
- inhibition [15]: Active
- Activity [17]: Active
- Activity [18]: Active
- Activity [19]: Non-toxic
- Activity [20]: Active
- Activity [21]: Non-toxic
- Activity [22]: Active
- Activity [23]: Active
- Activity [24]: Active
